Data set [1] deals with Aspergillus niger (CRCC 30506). Kind of data set: Antimycotic activity (MIC) on MRS agar plates inoculated with Aspergillus niger spores. The format is cell-based. To be noted: 168 h, 7 days at 24° C. On the procedure: The freshly prepared spore suspension (c.a. 10^6/ml)of Aspergillus niger (CRCC 30506) was inoculated on MRS agar plates containing different concentrations of natamycin. The diameter of the colonies of Aspergillus niger was measured after being incubated for 7days at 24° C. […] The results of Table 2 also indicate that the RFC mixture show higher antimycotic activity than conventional natamycin because of the improved solubility.

A short description of data set [2]: Natamycin solubility of the RFC composition in water by UV spectrophotometer at 332.6 nm. The format is physicochemical. To be noted: 25° C. On the procedure:
The RFC compositions were prepared by mixing commercial natamycin (87%) withβ-CD(98%) in different molar ratios. A comparison on the solubility of natamycin was made for the RFC compositions. The solubility of natamycin in water is determined by UV Spectrophotometer at 332.6 nm.

The conditions of data set [3]: cited from earlier work.

≈ marks a conversion by molar mass, not a printed value.

What is called MIC is the lowest concentration found to suppress growth. `C[C@@H]1C/C=C/C=C/C=C/C=C/[C@H](O[C@@H]2O[C@H](C)[C@@H](O)[C@H](N)[C@@H]2O)C[C@@H]2O[C@](O)(C[C@@H](O)C[C@H]3O[C@@H]3/C=C/C(=O)O1)C[C@H](O)[C@H]2C(=O)O` [Commercial natamycin (50%), natamycin] yielded an MIC in data set [1] of 1.25 to 1.5 µg/mL (≈ 1.88 to 2.25 µM).
The compound `C[C@@H]1C/C=C/C=C/C=C/C=C/[C@H](O[C@@H]2O[C@H](C)[C@@H](O)[C@H](N)[C@@H]2O)C[C@@H]2O[C@](O)(C[C@@H](O)C[C@H]3O[C@@H]3/C=C/C(=O)O1)C[C@H](O)[C@H]2C(=O)O` [natamycin] returned a Solubility of natamycin in data set [2] of 45 ppm. For the same compound, the solubility in water in data set [3] is on record as 0.005-0.010 weight/weigh.

The values are drawn from patent US20060116335A1, “Ready-for-complexation composition” (Lytone Enterprise, Inc., priority 2004, published 2006).
